Laboratory results as given in patent US11000033B2, “Ketone or oxime compound, and herbicide” (NISSAN CHEMICAL CORPORATION, priority 2014, dated 2021).

Key:
Format in all cases: in vivo
[1] = tested on: Echinochloa crus-galli var. crus-galli; assay: Test Example 5: herbicidal effect by foliage application, plastic box (symbol H); conditions: 320 g/ha, 3 weeks after application
In short: (§1)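 Emulsion formulation, diluted with water to the intended rate, was applied uniformly to leaves by small sprayer. Recipients were 14-day greenhouse-grown seedlings (25° C. to 30° C.). Assessment followed at 3 weeks.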

Monochoria vaginalis [2] = assay: Test Example 1: herbicidal activity, application before weed generation in submerged conditions (symbol C); conditions: application herbicide amount 320 g/ha
In short: (§2)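 Application before weed emergence: an aqueous dilution of the emulsion formulation was poured onto the surface of 4 cm-deep floodwater on the day of sowing. Effect was judged after 3 weeks (greenhouse, 25–30 °C).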

beet = assay: Test Example 4: effect on crop by soil treatment (symbol f); conditions: application herbicide amount 320 g/ha
In short: (§3)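 Crop seed is sown in spots together with several weed species in a box of sterilized diluvial soil. It is covered by about 1.5 cm of soil and kept in a greenhouse held between 25° C. and 30° C.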

rice = assay: Test Example 4: effect on crop by soil treatment (symbol b); conditions: application herbicide amount 320 g/ha
In short: as §3

soybean = assay: Test Example 4: effect on crop by soil treatment (symbol d); conditions: application herbicide amount 320 g/ha
In short: as §3

[3] = tested on: Echinochloa crus-galli var. crus-galli; assay: Test Example 4: herbicidal effect by soil treatment (symbol H); conditions: application herbicide amount 320 g/ha
In short: (§4)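 Seeds were sown in sterilized diluvial soil, covered with about 1.5 cm of soil, and the soil surface was sprayed with a water-diluted emulsion of the compound at a predetermined rate. Plants grew in a greenhouse at 25° C. to 30° C.; effects were scored visually 3 weeks after application.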

Setaria viridis = assay: Test Example 5: herbicidal effect by foliage application, plastic box (symbol G); conditions: 320 g/ha, 3 weeks after application
In short: as §1

Apera spica-venti [4] = assay: Test Example 5: herbicidal effect by foliage application, plastic box (symbol L); conditions: 320 g/ha, 3 weeks after application
In short: as §1

corn = assay: Test Example 5: effect on crop by foliage application, plastic box (symbol c); conditions: 320 g/ha, 3 weeks after application
In short: (§5)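 Foliage-application test plants come from spot sowing in sterilized diluvial soil under a soil layer of about 1.5 cm, grown at 25° C. to 30° C. in a greenhouse.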

rapeseed = assay: Test Example 5: effect on crop by foliage application, plastic box (symbol g); conditions: 320 g/ha, 3 weeks after application
In short: as §5

Abutilon theophrasti = assay: Test Example 4: herbicidal effect by soil treatment (symbol M); conditions: application herbicide amount 320 g/ha
In short: as §4

Avena fatua [5] = assay: Test Example 4: herbicidal effect by soil treatment (symbol I); conditions: application herbicide amount 320 g/ha
In short: as §4

[6] = tested on: Echinochloa oryzacola Vasing.; assay: Test Example 1: herbicidal activity, application before weed generation in submerged conditions (symbol A); conditions: application herbicide amount 320 g/ha
In short: as §2

Apera spica-venti [7] = assay: Test Example 4: herbicidal effect by soil treatment (symbol L); conditions: application herbicide amount 320 g/ha
In short: as §4

Avena fatua [8] = assay: Test Example 5: herbicidal effect by foliage application, plastic box (symbol I); conditions: 320 g/ha, 3 weeks after application
In short: as §1

Monochoria vaginalis [9] = assay: Test Example 2: herbicidal activity, application during weed generation in submerged conditions (symbol C); conditions: Table 23; application herbicide amount 320 g/ha; grade 0-5 by criteria of Test Example 1
In short: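 Compound was applied as a water-diluted emulsion into the standing water of flooded pots (4 cm) once co-sown weeds reached one to two leaves. Greenhouse temperature was 25° C. to 30° C., soil was alluvial, and each species was rated visually after 3 weeks.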

Row | Structure (SMILES) | H: Echinochloa crus-galli var. crus-galli, herbicidal effect (criteria of Test Example 1) [1] | Herbicidal effect grade, C: Monochoria vaginalis (Monochoria vaginalis [2]) | f: beet, effect on crop grade (beet) | b: directly sowed rice plant, effect on crop grade (rice) | d: soybean, effect on crop grade (soybean) | H: Echinochloa crus-galli var. crus-galli, herbicidal effect grade [3] | G: Setaria viridis, herbicidal effect (criteria of Test Example 1) (Setaria viridis) | L: Apera spica-venti, herbicidal effect (criteria of Test Example 1) (Apera spica-venti [4]) | c: corn, effect on crop (criteria of Test Example 1) (corn) | g: rapeseed, effect on crop (criteria of Test Example 1) (rapeseed) | M: Abutilon theophrasti, herbicidal effect grade (Abutilon theophrasti) | I: Avena fatua, herbicidal effect grade (Avena fatua [5]) | Herbicidal effect grade, A: Echinochloa oryzacola Vasing. [6] | L: Apera spica-venti, herbicidal effect grade (Apera spica-venti [7]) | I: Avena fatua, herbicidal effect (criteria of Test Example 1) (Avena fatua [8]) | Herbicidal effect grade, C: Monochoria vaginalis (Monochoria vaginalis [9]) | Effect on crop grade, f: beet (beet) | Effect on crop grade, b: directly sowed rice plant (rice) | Effect on crop grade, d: soybean (soybean) | Herbicidal effect grade, H: Echinochloa crus-galli var. crus-galli [3] | other results
1 | CON=C(C)CC1CC(O)=C(c2c(C)cc(-c3ccc(F)cc3)cc2C)C1=O (mixture of isomers) [6-058] | 5 (Herbicidal ratio of 90% or more (almost completely withered)) | 5 (Herbicidal ratio of 90% or more (almost completely withered)) | 4 (Herbicidal ratio of 70% or higher and lower than 90%) | 5 (Herbicidal ratio of 90% or more (almost completely withered)) | 0 (Herbicidal ratio of 5% or lower (almost no effect)) | 5 (Herbicidal ratio of 90% or more (almost completely withered)) | 5 (Herbicidal ratio of 90% or more (almost completely withered)) | 5 (Herbicidal ratio of 90% or more (almost completely withered)) | 5 (Herbicidal ratio of 90% or more (almost completely withered)) | 5 (Herbicidal ratio of 90% or more (almost completely withered)) | 5 (Herbicidal ratio of 90% or more (almost completely withered)) | 5 (Herbicidal ratio of 90% or more (almost completely withered)) | 5 (Herbicidal ratio of 90% or more (almost completely withered)) | 5 (Herbicidal ratio of 90% or more (almost completely withered)) | 5 (Herbicidal ratio of 90% or more (almost completely withered)) | 5 (Herbicidal ratio of 90% or more (almost completely withered)) |  |  |  |  | 
2 | CC(=O)CC1CC(O)=C(c2c(C)cc(-c3ccccn3)cc2C)C1=O (stereo not shown) [7-012] | 5 (Herbicidal ratio of 90% or more (almost completely withered)) | 0 (Herbicidal ratio of 5% or lower (almost no effect)) |  |  |  |  | 5 (Herbicidal ratio of 90% or more (almost completely withered)) | 0 (Herbicidal ratio of 5% or lower (almost no effect)) | 3 (Herbicidal ratio of 40% or higher and lower than 70%) | 3 (Herbicidal ratio of 40% or higher and lower than 70%) |  |  | 3 (Herbicidal ratio of 40% or higher and lower than 70%) |  | 1 (Herbicidal ratio of 5% or higher and lower than 20%) | 0 (Herbicidal ratio of 5% or lower (almost no effect)) | 0 (Herbicidal ratio of 5% or lower (almost no effect)) | 5 (Herbicidal ratio of 90% or more (almost completely withered)) | 0 (Herbicidal ratio of 5% or lower (almost no effect)) | 5 (Herbicidal ratio of 90% or more (almost completely withered)) | Herbicidal effect grade, M: Abutilon theophrasti (Abutilon theophrasti): 0 (Herbicidal ratio of 5% or lower (almost no effect)); Herbicidal effect grade, I: Avena fatua (Avena fatua [5]): 0 (Herbicidal ratio of 5% or lower (almost no effect)); Herbicidal effect grade, L: Apera spica-venti (Apera spica-venti [7]): 0 (Herbicidal ratio of 5% or lower (almost no effect))
3 | CON=C(C)CC1CC(O)=C(c2c(C)cc(C(C)=NOC)cc2C)C1=O (stereo not shown) [6-065] | 5 (Herbicidal ratio of 90% or more (almost completely withered)) | 3 (Herbicidal ratio of 40% or higher and lower than 70%) | 2 (Herbicidal ratio of 20% or higher and lower than 40%) | 5 (Herbicidal ratio of 90% or more (almost completely withered)) | 0 (Herbicidal ratio of 5% or lower (almost no effect)) | 5 (Herbicidal ratio of 90% or more (almost completely withered)) | 5 (Herbicidal ratio of 90% or more (almost completely withered)) | 5 (Herbicidal ratio of 90% or more (almost completely withered)) | 5 (Herbicidal ratio of 90% or more (almost completely withered)) | 4 (Herbicidal ratio of 70% or higher and lower than 90%) | 0 (Herbicidal ratio of 5% or lower (almost no effect)) | 4 (Herbicidal ratio of 70% or higher and lower than 90%) | 4 (Herbicidal ratio of 70% or higher and lower than 90%) | 5 (Herbicidal ratio of 90% or more (almost completely withered)) | 5 (Herbicidal ratio of 90% or more (almost completely withered)) | 2 (Herbicidal ratio of 20% or higher and lower than 40%) |  |  |  |  | 
4 | COc1ccc(-c2cc(C)c(C3=C(O)CC(CC(C)=O)C3=O)c(C)c2)cc1 (stereo not shown) [7-006] | 5 (Herbicidal ratio of 90% or more (almost completely withered)) | 0 (Herbicidal ratio of 5% or lower (almost no effect)) |  |  |  |  | 5 (Herbicidal ratio of 90% or more (almost completely withered)) | 4 (Herbicidal ratio of 70% or higher and lower than 90%) | 4 (Herbicidal ratio of 70% or higher and lower than 90%) | 3 (Herbicidal ratio of 40% or higher and lower than 70%) |  |  | 3 (Herbicidal ratio of 40% or higher and lower than 70%) |  | 3 (Herbicidal ratio of 40% or higher and lower than 70%) | 0 (Herbicidal ratio of 5% or lower (almost no effect)) | 0 (Herbicidal ratio of 5% or lower (almost no effect)) | 3 (Herbicidal ratio of 40% or higher and lower than 70%) | 1 (Herbicidal ratio of 5% or higher and lower than 20%) | 0 (Herbicidal ratio of 5% or lower (almost no effect)) | Herbicidal effect grade, M: Abutilon theophrasti (Abutilon theophrasti): 0 (Herbicidal ratio of 5% or lower (almost no effect)); Herbicidal effect grade, I: Avena fatua (Avena fatua [5]): 0 (Herbicidal ratio of 5% or lower (almost no effect)); Herbicidal effect grade, L: Apera spica-venti (Apera spica-venti [7]): 0 (Herbicidal ratio of 5% or lower (almost no effect))
